The experiment concerns the target cAMP-dependent protein kinase (PKA) (Homo sapiens, UniProt P22694+P17612+P22612). The experiment in a line: Inhibition of protein kinase A expressed in Escherichia coli.

The results in this text go back to ChEMBL document CHEMBL1149203, “Design, synthesis, and characterization of an ATP-peptide conjugate inhibitor of protein kinase A” (Bioorg Med Chem Lett, 2004).

Usually Ki stands for a dissociation constant, usually derived from enzyme kinetics or from competition with a known ligand. High values mean a looser hold on the target, low ones a stronger hold on the target. For the compound `CC(=O)N[C@@H](CC(C)C)C(=O)N[C@@H](CCCN=C(N)N)C(=O)N[C@@H](CCCN=C(N)N)C(=O)N[C@@H](C)C(=O)NC(CNC(=O)CSP(=O)(O)OP(=O)(O)OP(=O)(O)OC[C@H]1O[C@@H](n2cnc3c(N)ncnc32)[C@H](O)[C@@H]1O)C(=O)N[C@@H](CC(C)C)C(=O)NCC(=O)O` (stereo partly specified), the inhibition constant Ki was 3.8 µM.
